The nature of the series: Uptake of colonically absorbable forms of levodopa after intracolonic administration in rats. The series is classed as in vivo. Particulars: whole blood, other: intracolonic (directly into the colon via cannula), rat, intraperitoneal carbidopa. The procedure: Sustained release oral dosage forms, which release drug slowly over periods of about 6 to about 24 hours, generally release a significant proportion of the dose within the colon. Thus, drugs suitable for use in such dosage forms should be colonically absorbed.
Rats were obtained commercially and were pre-cannulated in the both the ascending colon and the jugular vein. Animals were conscious at the time of the experiment. […] Carbidopa was administered as a solution in water or citrate buffer either orally, intraperitoneally, or intracolonically at a dose equivalent to 25 mg of carbidopa per kg. […] Blood was then further quenched with methanol/perchloric acid to prevent hydrolysis of the levodopa prodrug. Blood samples were analyzed as described below.
Methanol/perchloric acid (300 μL) was added to blank 1.5 mL Eppendorf tubes. Rat blood (300 μL) was collected into EDTA tubes containing 75 μL of sodium metabisulfite at different times and vortexed to mix. A fixed volume of blood (100 μL) was immediately added into the Eppendorf tube and vortexed to mix. […] Methanol/perchloric acid (300 μL of 50/50) was then added into each tube followed by the addition of 20 μL of p-chlorophenylalanine. The samples were vortexed and centrifuged at 14,000 rpm for 10 min. The supernatant was analyzed by LC/MS/MS. […]

Data on one compound can be found in patent US20080070984A1, “Compositions and Methods of Treating Schizophrenia” (priority 2006, published 2008).

What is called bioavailability is the share of a dose that reaches the circulation, judged against a reference dose that is usually intravenous. A high value points to much systemic uptake.

For `N[C@@H](Cc1ccc(O)c(O)c1)C(=O)O` [levodopa], the bioavailability was 3%.
